Laboratory results reported in ChEMBL document CHEMBL1152350, “Identification of compounds exhibiting inhibitory activity toward the Pseudomonas tolaasii toxin tolaasin I using in silico docking calculations, NMR binding assays, and in vitro hemolytic activity assays” (Bioorg Med Chem Lett, 2009).
Calls of active or inactive are those of the source. No cut-off for these calls is given here.

How the values were obtained:
Pseudomonas tolaasii [1] = experiment: Suppression of Pseudomonas tolaasii tolaasin 1-induced hemolysis in rat erythrocytes at >1 mM; assay type: cell-based
Pseudomonas tolaasii [2] = experiment: Binding affinity to Pseudomonas tolaasii tolaasin 1 at 1 mM by NMR spectroscopy
Pseudomonas tolaasii [3] = experiment: Suppression of Pseudomonas tolaasii tolaasin 1-induced hemolysis in rat erythrocytes at 10 to 100 uM; assay type: cell-based
Pseudomonas tolaasii [4] = experiment: Suppression of Pseudomonas tolaasii tolaasin 1-induced hemolysis in rat erythrocytes; assay type: cell-based

Activity (Pseudomonas tolaasii [2]) | Compound | Activity (Pseudomonas tolaasii [1]) | Activity (Pseudomonas tolaasii [3]) [%] | Activity (Pseudomonas tolaasii [4])
Active | CCCCCCCC/C=C\CCCCCCCC(=O)OC[C@@H](O)[C@@H](O)[C@H](O)[C@@H](O)CO | inactive | 40 | 
inactive | Cc1[nH]c(=N)sc1C |  |  | inactive
